pIC50: −log10 of the molar value.

One assay addresses T1, hChoKβ FL (Homo sapiens, UniProt Q9Y259).
T1 construct: hChoKβ full length (FL), corresponding to aminoacids 2-395; GST (N, cleaved yes); Prescission Protease recognition site (N, cleaved yes); made in house; host or cells: Escherichia coli BL21pLysS (DE3)
Briefly: Biochemical kinase inhibition assay (Kinase-Glo Luminescent Kinase Assay) on hChoKβ FL. Conditions: ATP 5 μM, choline 20 μM, 60 minutes at rt; read-out: IC50 ChoKβ.

A further assay addresses T2, Δ49N-hChoKα (Homo sapiens, UniProt P35790).
T2 construct: cDNA fragment 362-1534, corresponding to aminoacids 50-457; GST (N, cleaved yes); Prescission Protease recognition site (N, cleaved yes); made in house; host or cells: Escherichia coli BL21pLysS (DE3)
Briefly: Biochemical kinase inhibition assay (Kinase-Glo Luminescent Kinase Assay) on Δ49N-hChoKα. To be noted: ATP 5 μM, choline 5 μM, 60 minutes at rt; read-out: IC50 ChoKα. On the technique in general: Kinase-Glo reads ATP consumption through a luciferase reaction.

T1 sequence (Q9Y259 2-395): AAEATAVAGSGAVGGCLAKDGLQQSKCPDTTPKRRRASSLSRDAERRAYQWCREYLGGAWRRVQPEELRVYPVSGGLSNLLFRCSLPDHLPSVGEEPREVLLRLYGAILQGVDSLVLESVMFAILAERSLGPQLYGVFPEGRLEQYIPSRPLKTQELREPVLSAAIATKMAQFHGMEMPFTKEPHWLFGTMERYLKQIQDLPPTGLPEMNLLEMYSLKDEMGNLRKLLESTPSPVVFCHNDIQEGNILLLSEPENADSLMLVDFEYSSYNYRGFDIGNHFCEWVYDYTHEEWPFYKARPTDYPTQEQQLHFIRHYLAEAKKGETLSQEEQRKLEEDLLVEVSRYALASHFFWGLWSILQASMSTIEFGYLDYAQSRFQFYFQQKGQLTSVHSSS
T2 sequence (P35790 50-457, stated change not applied): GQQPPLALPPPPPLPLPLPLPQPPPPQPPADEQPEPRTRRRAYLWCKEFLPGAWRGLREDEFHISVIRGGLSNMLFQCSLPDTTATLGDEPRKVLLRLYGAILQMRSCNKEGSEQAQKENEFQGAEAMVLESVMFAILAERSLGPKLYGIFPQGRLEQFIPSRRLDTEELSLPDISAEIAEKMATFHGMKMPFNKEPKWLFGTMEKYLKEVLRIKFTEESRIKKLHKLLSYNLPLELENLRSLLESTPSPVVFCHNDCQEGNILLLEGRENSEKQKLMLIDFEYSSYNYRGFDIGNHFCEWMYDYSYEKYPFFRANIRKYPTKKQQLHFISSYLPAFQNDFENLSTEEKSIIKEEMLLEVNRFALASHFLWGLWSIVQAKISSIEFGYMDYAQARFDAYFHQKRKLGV
Protocol for hChoKβ FL: (§1) The biochemical activity of compounds against Δ49N-ChoKα and ChoKβ FL were determined using the Kinase-Glo™ Luminescent Kinase Assay (Promega cat. V6711).
(§2) Compounds were 3-fold serially diluted from 10 to 0.0005 μM, then incubated for 60 minutes at rt in the presence of ATP 5 μM, choline (5 μM for ChoKα and 20 μM for ChoKβ) and enzyme in a final volume of 19 μL of kinase buffer (50 mM Hepes pH 7.5, 10 mM MgCl2, 1 mM DTT, 3 μM Na3VO4 and 0.2 mg/mL BSA). The final concentration of DMSO was 1%.
(§3) At the end of the incubation, an amount of 19 μL of KinaseGlo Reagent was added to each well to stop the reaction and after 30 minutes the luminescence signal was measured using ViewLux reader (Perkin Elmer).
(§4) The data per each molecule are analyzed by an internally customized version of the SW package “Assay Explorer” which provides sigmoidal fittings of the ten-dilution curves for IC50 determination using a 4 parameter logistic equation: y=bottom+(top−bottom)/(1+10^((log IC50−x)*slope)) where x is the logarithm of the inhibitor concentration, y is the response; y starts at bottom and goes to top with a sigmoid shape.
Protocol for Δ49N-hChoKα: as §1, §2, §3, §4

Turning to `COc1cccc(NC(=O)[C@H]2CC[C@@H](n3cnc4c(N)nc(-c5ccncc5)nc43)CC2)c1` [cpd 9, cis-4-[6-amino-2-(pyridin-4-yl)-9H-purin-9-yl]-N-(3-methoxyphenyl)cyclohexanecarboxamide], the pIC50 at hChoKβ FL is less than 5.00.
Take `COc1cccc(NC(=O)[C@H]2CC[C@@H](n3cnc4c(N)nc(-c5ccnc(F)c5)nc43)CC2)c1` [cpd 15, cis-4-[6-amino-2-(2-fluoropyridin-4-yl)-9H-purin-9-yl]-N-(3-methoxyphenyl)cyclohexanecarboxamide]: the pIC50 at Δ49N-hChoKα is 6.38.
Same read-out and setting: under `COc1cccc(NC(=O)[C@H]2CC[C@@H](n3cnc4c(N)nc(-c5ccc(F)nc5)nc43)CC2)c1` [cpd 19, cis-4-[6-amino-2-(6-fluoropyridin-3-yl)-9H-purin-9-yl]-N-(3-methoxyphenyl)cyclohexanecarboxamide] stands 6.10; under `COc1cccc(NC(=O)[C@H]2CC[C@@H](n3cnc4c(N)nc(-c5ccnc(OC)c5)nc43)CC2)c1` [cpd 21, cis-4-[6-amino-2-(2-methoxypyridin-4-yl)-9H-purin-9-yl]-N-(3-methoxyphenyl)cyclohexanecarboxamide], 6.05.
`COc1cccc(NC(=O)[C@H]2CC[C@@H](n3cnc4c(N)nc(-c5ccc(C(=O)Nc6ccc(CN7CCN(C)CC7)cc6)cc5)nc43)CC2)c1` [cpd 29, 4-(6-amino-9-{cis-4-[(3-methoxyphenyl)carbamoyl]cyclohexyl}-9H-purin-2-yl)-N-{4-[(4-methylpiperazin-1-yl)methyl]phenyl}benzamide]: the negative-log IC50 (pIC50) at Δ49N-hChoKα was 6.59; at hChoKβ FL, 5.73.
For `COc1cccc(NC(=O)[C@H]2CC[C@@H](n3cnc4c(N)nc(-c5cccc(C(=O)Nc6ccc(CN7CCN(C)CC7)cc6)c5)nc43)CC2)c1` [cpd 30, 3-(6-amino-9-{cis-4-[(3-methoxyphenyl)carbamoyl]cyclohexyl}-9H-purin-2-yl)-N-{4-[(4-methylpiperazin-1-yl)methyl]phenyl}benzamide], in that order: 6.52 and less than 5.00.
Take `COc1cccc(NC(=O)[C@H]2CC[C@@H](n3cnc4c(N)nc(-c5cccc(C(=O)Nc6ccc(CN7CCC(N(C)C)CC7)cc6)c5)nc43)CC2)c1` [cpd 31, 3-(6-amino-9-{cis-4-[(3-methoxyphenyl)carbamoyl]cyclohexyl}-9H-purin-2-yl)-N-(4-{[4-(dimethylamino)piperidin-1-yl]methyl}phenyl)benzamide]: the pIC50 at Δ49N-hChoKα is 7.40; at hChoKβ FL it was less than 5.00.
As for `COc1cccc(NC(=O)[C@H]2CC[C@@H](n3cnc4c(N)nc(-c5ccc(C(=O)Nc6ccc(CN7CCC(N(C)C)CC7)cc6)cc5)nc43)CC2)c1` [cpd 33, 4-(6-amino-9-{cis-4-[(3-methoxyphenyl)carbamoyl]cyclohexyl}-9H-purin-2-yl)-N-(4-{[4-(dimethylamino)piperidin-1-yl]methyl}phenyl)benzamide], the pIC50 on Δ49N-hChoKα was 7.68; on hChoKβ FL, 5.34.
For `CN1CCN(Cc2ccc(NC(=O)Cc3ccc(NC(=O)[C@H]4CC[C@@H](n5cnc6c(N)nc(Cl)nc65)CC4)cc3)cc2C(F)(F)F)CC1` [cpd 35, cis-4-(6-amino-2-chloro-9H-purin-9-yl)-N-{4-[2-({4-[(4-methylpiperazin-1-yl)methyl]-3-(trifluoromethyl)phenyl}amino)-2-oxoethyl]phenyl}cyclohexanecarboxamide], in that order: 7.89 and 6.37.
In the same order, the values of `CN1CCN(Cc2ccc(NC(=O)Cc3ccc(NC(=O)[C@H]4CC[C@@H](n5cnc6c(N)nc(Cl)nc65)CC4)cc3)cc2)CC1` [cpd 36, cis-4-(6-amino-2-chloro-9H-purin-9-yl)-N-{4-[2-({4-[(4-methylpiperazin-1-yl)methyl]phenyl}amino)-2-oxoethyl]phenyl}cyclohexanecarboxamide] are 7.28 and 5.87.
In the same order, the values of `COc1ccc(NC(=O)[C@H]2CC[C@@H](n3cnc4c(N)nc(-c5ccncc5)nc43)CC2)cc1OC` [cpd 37, cis-4-[6-amino-2-(pyridin-4-yl)-9H-purin-9-yl]-N-(3,4-dimethoxyphenyl)cyclohexanecarboxamide] are 6.07 and less than 5.00.
For `COc1cccc(NC(=O)[C@H]2CC[C@@H](n3cnc4c(N)nc(I)nc43)CC2)c1` [cpd 41, cis-4-(6-amino-2-iodo-9H-purin-9-yl)-N-(3-methoxyphenyl)cyclohexanecarboxamide], the pIC50 is 6.36 at Δ49N-hChoKα and less than 5.00 at hChoKβ FL.
For `C#Cc1nc(N)c2ncn([C@H]3CC[C@@H](C(=O)Nc4cccc(OC)c4)CC3)c2n1` [cpd 45, cis-4-(6-amino-2-ethynyl-9H-purin-9-yl)-N-(3-methoxyphenyl)cyclohexanecarboxamide], in that order: 6.71 and 5.30.
For `Cc1cccc(NC(=O)[C@H]2CC[C@@H](n3cnc4c(N)nc(Cl)nc43)CC2)c1` [cpd 48, cis-4-(6-amino-2-chloro-9H-purin-9-yl)-N-(3-methylphenyl)cyclohexanecarboxamide], the pIC50 at Δ49N-hChoKα was 6.55; on hChoKβ FL, less than 5.00.
`Cc1cccc(NC(=O)[C@H]2CC[C@@H](n3cnc4c(N)nc(-c5ccncc5)nc43)CC2)c1` [cpd 50, cis-4-[6-amino-2-(pyridin-4-yl)-9H-purin-9-yl]-N-(3-methylphenyl)cyclohexanecarboxamide]: the pIC50 was 6.51 on Δ49N-hChoKα and less than 5.00 at hChoKβ FL.
For `Nc1nc(Cl)nc2c1ncn2[C@H]1CC[C@@H](C(N)=O)CC1` [cpd 53, cis-4-(6-amino-2-chloro-9H-purin-9-yl)cyclohexanecarboxamide], in that order: 6.07 and less than 5.00.
In the case of `COc1cccc2sc(NC(=O)[C@H]3CC[C@@H](n4cnc5c(N)nc(Cl)nc54)CC3)nc12` [cpd 91, cis-4-(6-amino-2-chloro-9H-purin-9-yl)-N-(4-methoxy-1,3-benzothiazol-2-yl)cyclohexanecarboxamide], the pIC50 at hChoKβ FL was 5.13.
`COc1ccc2nc(NC(=O)[C@H]3CC[C@@H](n4cnc5c(N)nc(Cl)nc54)CC3)sc2c1` [cpd 92, cis-4-(6-amino-2-chloro-9H-purin-9-yl)-N-(6-methoxy-1,3-benzothiazol-2-yl)cyclohexanecarboxamide]: the pIC50 on hChoKβ FL was 5.30.
Regarding `NC(=O)Cc1ccc2nc(NC(=O)[C@H]3CC[C@@H](n4cnc5c(N)nc(Cl)nc54)CC3)sc2c1` [cpd 177, cis-4-(6-amino-2-chloro-9H-purin-9-yl)-N-[6-(2-amino-2-oxoethyl)-1,3-benzothiazol-2-yl]cyclohexanecarboxamide], at hChoKβ FL, the negative-log IC50 (pIC50) was 5.42.
On the same count and under the same terms, under `Nc1nc(Cl)nc2c1ncn2[C@H]1CC[C@@H](C(=O)Nc2nc3c(s2)CN(C2CC2)CC3)CC1` [cpd 184, cis-4-(6-amino-2-chloro-9H-purin-9-yl)-N-(5-cyclopropyl-4,5,6,7-tetrahydro[1,3]thiazolo[5,4-c]pyridin-2-yl)cyclohexanecarboxamide] stands 5.17.
The same measure, in the same setting: the same measure for `CC1(C)Cc2nc(NC(=O)[C@H]3CC[C@@H](n4cnc5c(N)nc(F)nc54)CC3)sc2C(C)(C)N1` [cpd 190, cis-4-(6-amino-2-fluoro-9H-purin-9-yl)-N-(4,4,6,6-tetramethyl-4,5,6,7-tetrahydro[1,3]thiazolo[5,4-c]pyridin-2-yl)cyclohexanecarboxamide]: less than 5.00.

One may read the pIC50 as −log10 of the IC50, conventionally taken in molar units.

(Values after US10683292B2, “Purine and 3-deazapurine analogues as choline kinase inhibitors” (NERVIANO MEDICAL SCIENCES S.R.L., priority 2016, dated 2020).)
